Laboratory results reported in ChEMBL document CHEMBL1133073, “Structure-activity relationships of carboxymethylpullulan-peptide-doxorubicin conjugates--systematic modification of peptide spacers” (Bioorg Med Chem Lett, 2000).

What was measured:
Rattus norvegicus [1] = assay: In vivo heart distribution of free doxorubicin after 6 hr intravenous administration of 2.5 mg/kg of compound in rat bearing Walker 256 cells; assay type: ADME, organism-based; design: dose 2.5 mg/kg, route intravenous
Rattus norvegicus [2] = assay: In vivo liver distribution of free doxorubicin after 6 hr intravenous administration of 2.5 mg/kg of compound in rat bearing Walker 256 cells; assay type: ADME, organism-based; design: dose 2.5 mg/kg, route intravenous
Rattus norvegicus [3] = assay: In vivo liver distribution of total doxorubicin after 6 h intravenous administration of 2.5 mg/kg of compound in rat bearing Walker 256 cells; assay type: ADME, organism-based; design: dose 2.5 mg/kg, route intravenous
Rattus norvegicus [4] = assay: In vivo plasma distribution of free doxorubicin after 6 h intravenous administration of 2.5 mg/kg of compound in rat bearing Walker 256 cells; assay type: ADME, organism-based; design: dose 2.5 mg/kg, route intravenous
Rattus norvegicus [5] = assay: In vivo plasma distribution of total doxorubicin after 6 hr intravenous administration of 2.5 mg/kg of compound in rat bearing Walker 256 cells; assay type: ADME, organism-based; design: dose 2.5 mg/kg, route intravenous
Rattus norvegicus [6] = assay: In vivo spleen distribution of total doxorubicin after 6 hr intravenous administration of 2.5 mg/kg of compound in rat bearing Walker 256 cells; assay type: ADME, organism-based; design: dose 2.5 mg/kg, route intravenous
Rattus norvegicus [7] = assay: In vivo tumor distribution of free doxorubicin after 6 h intravenous administration of 2.5 mg/kg of compound in rat bearing Walker 256 cells; assay type: ADME, organism-based; design: dose 2.5 mg/kg, route intravenous
Rattus norvegicus [8] = species: Rattus norvegicus; assay: Effective dose was measured in rats; assay type: functional
Rattus norvegicus [9] = assay: In vivo tumor distribution of total doxorubicin after 6 hr intravenous administration of 2.5 mg/kg of compound in rat bearing Walker 256 cells; assay type: ADME, organism-based; design: dose 2.5 mg/kg, route intravenous

Dose/g tissue (Rattus norvegicus [1]): 1.13% | Dose/g tissue (Rattus norvegicus [2]): 0.56% | Dose/g tissue (Rattus norvegicus [3]): 0.54% | Dose/g tissue (Rattus norvegicus [4]): 0% | Dose/g tissue (Rattus norvegicus [5]): 0% | Dose/g tissue (Rattus norvegicus [6]): 2.21% | Dose/g tissue (Rattus norvegicus [7]): 0.24% | Dose/g tissue (Rattus norvegicus [9]): 0.35%
Structure (SMILES): COc1cccc2c1C(=O)c1c(O)c3c(c(O)c1C2=O)C[C@@](O)(C(=O)CO)C[C@@H]3O[C@H]1C[C@H](N)[C@H](O)[C@H](C)O1 [DOXORUBICIN]
ED50 (Rattus norvegicus [8]): 1.17 mg/kg
